Experiments:
UGT3-SEQ ID NO: 74 = biological target: T1, UGT3-SEQ ID NO: 74 (Stevia rebaudiana, UniProt Q6VAA6); assay type: biochemical; conditions: CFE 0.05 mg/mL, UDP-glucose 1 mM
T1 construct: made in house; host or cells: Saccharomyces cerevisiae; unpurified soluble cell extract (CFE) from bead-lysed biomass
T1 sequence (Q6VAA6 1-460): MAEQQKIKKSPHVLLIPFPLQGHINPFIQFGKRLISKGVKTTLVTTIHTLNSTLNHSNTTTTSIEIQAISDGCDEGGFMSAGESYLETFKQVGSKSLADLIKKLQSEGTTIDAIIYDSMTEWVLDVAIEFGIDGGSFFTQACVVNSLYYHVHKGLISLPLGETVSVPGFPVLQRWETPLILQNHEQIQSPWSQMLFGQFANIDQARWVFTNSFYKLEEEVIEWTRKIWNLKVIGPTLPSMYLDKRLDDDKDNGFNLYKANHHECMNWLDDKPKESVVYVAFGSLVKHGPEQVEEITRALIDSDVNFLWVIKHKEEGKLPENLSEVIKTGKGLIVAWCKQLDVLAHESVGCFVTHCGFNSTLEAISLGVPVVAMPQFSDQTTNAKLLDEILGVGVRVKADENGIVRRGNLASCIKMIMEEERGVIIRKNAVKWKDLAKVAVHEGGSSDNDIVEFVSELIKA

[1] = tested on: CFE obtained from the Yarrowia lipolitica steviol glycoside producing strains; experiment: bioconversion of rebaudiosideA with CFE of Yarrowia lipolitica steviol glycoside producing strains, UDP-glucose, LC-MS; assay type: biochemical; conditions: rebaudiosideA 100-500 μM; CFE 0.1 mg/mL; UDP-glucose 1 mM; products rebaudioside D and rebaudioside M
Description: Methods to obtain yeast strains expressing constructs encoding the steviol glycoside production pathway are described in WO2013/110673 and WO2015/007748. Here, different Yarrowia lipolitica strains were used: the parent strain (as negative control) and strains expressing the whole steviol glycoside production pathway. Cells were grow o/n in YEPD medium. After determining the optical density at 600 nm (respectively 1.00×10^10 cells/mL for the parent strain cultivation and 6.00-8.57×10^9 cells/mL for different Yarrowia lipolitica steviol glycoside producing strains), cells were lysed with 0.5 mm zirconia beads (see example 2 for details). The protein concentration of the thus obtained CFE were determined using Bradford reagent. The actual obtained protein concentrations ranged from 0,453 mg/mL to 0,771 mg/mL.
A dilution series of rebaudiosideA stock solutions was prepared at 0, 500, 1000, 1500, 2000 and 2500 μM in Van Eunen buffer. The CFE's were diluted in Van Eunen buffer to a concentration of 0.125 mg/m L. A 5 mM stock solution of UDP-glucose was prepared.
The reactions were set-up as described in example 2, only now the concentration of the CFE in the final reaction was doubled. Multiple samples were taken to follow the reactions.
In the reactions the final concentrations were: CFE, 0.1 mg/mL; UDP-glucose, 1 mM; rebaudiosideA, at 0, 100, 200, 300, 400, 500 μM. […]

[2] = suitable for use in carbonated beverages and many other foods; cited from earlier work
[3] = sweetness relative to sucrose; cited from earlier work
[4] = Type II diabetics; studies suggest; cited from earlier work
[5] = mildly hypertensive patients; studies suggest; cited from earlier work

C=C1C[C@@]23CC[C@H]4[C@@](C)(CCC[C@@]4(C)C(=O)O[C@@H]4O[C@H](CO)[C@@H](O)[C@H](O)[C@H]4O)[C@@H]2CC[C@]1(O[C@@H]1O[C@H](CO)[C@@H](O)[C@H](O[C@@H]2O[C@H](CO)[C@@H](O)[C@H](O)[C@H]2O)[C@H]1O[C@@H]1O[C@H](CO)[C@@H](O)[C@H](O)[C@H]1O)C3 [rebaudioside A]
Vmax of rebaudiosideA formation (UGT3-SEQ ID NO: 74; substrate rebaudioside B 0-200 μM, 30° C., calculated with GraphPad 5): 0.0549±0.004 μmol/mg protein/min | glycosylated products detected by LC-MS [1]: two glycosylated products of rebaudioside A were detected | heat and pH stability [2]: heat and pH stable

C=C1C[C@@]23CC[C@H]4[C@@](C)(CCC[C@@]4(C)C(=O)O[C@@H]4O[C@H](CO)[C@@H](O)[C@H](O)[C@H]4O[C@@H]4O[C@H](CO)[C@@H](O)[C@H](O)[C@H]4O)[C@@H]2CC[C@]1(O[C@@H]1O[C@H](CO)[C@@H](O)[C@H](O[C@@H]2O[C@H](CO)[C@@H](O)[C@H](O)[C@H]2O)[C@H]1O[C@@H]1O[C@H](CO)[C@@H](O)[C@H](O)[C@H]1O)C3 [rebaudioside D]
times sweeter than sucrose [3]: about 200 times

C=C1C[C@@]23CC[C@H]4[C@@](C)(CCC[C@@]4(C)C(=O)O[C@@H]4O[C@H](CO)[C@@H](O)[C@H](O)[C@H]4O)[C@@H]2CC[C@]1(O[C@@H]1O[C@H](CO)[C@@H](O)[C@H](O)[C@H]1O[C@@H]1O[C@H](CO)[C@@H](O)[C@H](O)[C@H]1O)C3 [stevioside]
effect on blood glucose levels [4]: can reduce blood glucose levels | effect on blood pressure [5]: can reduce blood pressure | heat and pH stability [2]: heat and pH stable

rebaudioside B
glycosylation of rebaudiosideB into rebaudiosideA by spent biomass derived material (UGT3-SEQ ID NO: 74; rebaudioside B 50-200 μM, samples 0-30 min, FIG. 2): very efficiently glycosylated
